Source: patent US7713971B2, “1,2,4-triazine derivatives, preparation and use thereof in human therapy” (Pierre Fabre Medicament, priority 2005, dated 2010)
Like-named read-outs stand apart in the source and are kept apart here.

Key:
human PPARα = target: T1, human PPARα (Homo sapiens, UniProt Q07869); assay: Reporter gene transactivation, hPPAR-GAL4 alpha; type: cell-based; settings: transfected Cos-7 cells, Gal-4 luciferase reporter, 24 hours treatment
T1 construct: expressed in transfected cells; host or cells: Cos-7 cells (ATCC, CRL-1651)
T1 sequence (Q07869 239-466 limits assumed): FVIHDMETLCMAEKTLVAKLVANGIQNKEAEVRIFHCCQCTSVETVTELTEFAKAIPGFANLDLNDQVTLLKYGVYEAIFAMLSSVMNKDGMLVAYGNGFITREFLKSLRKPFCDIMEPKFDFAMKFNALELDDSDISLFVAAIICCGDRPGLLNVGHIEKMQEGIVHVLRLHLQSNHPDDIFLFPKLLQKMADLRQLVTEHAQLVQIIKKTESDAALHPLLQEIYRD

human PPARγ = target: T2, human PPARγ (Homo sapiens, UniProt P37231); assay: Reporter gene transactivation, hPPAR-GAL4 gamma; type: cell-based; settings: transfected Cos-7 cells, Gal-4 luciferase reporter, 24 hours treatment
T2 construct: expressed in transfected cells; host or cells: Cos-7 cells (ATCC, CRL-1651)
T2 sequence (P37231 238-503 limits assumed): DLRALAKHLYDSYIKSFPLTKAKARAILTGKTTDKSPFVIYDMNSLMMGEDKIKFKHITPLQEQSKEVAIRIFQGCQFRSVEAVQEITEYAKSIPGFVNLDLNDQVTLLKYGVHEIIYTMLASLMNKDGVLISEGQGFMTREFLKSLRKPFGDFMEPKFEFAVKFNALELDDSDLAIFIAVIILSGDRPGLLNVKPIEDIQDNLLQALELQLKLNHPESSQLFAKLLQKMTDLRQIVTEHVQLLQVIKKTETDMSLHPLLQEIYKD

human PPARδ = target: T3, human PPARδ (Homo sapiens, UniProt Q03181); assay: Reporter gene transactivation, hPPAR-GAL4 delta; type: cell-based; settings: transfected Cos-7 cells, Gal-4 luciferase reporter, 24 hours treatment
T3 construct: expressed in transfected cells; host or cells: Cos-7 cells (ATCC, CRL-1651)
T3 sequence (Q03181 211-439 limits assumed): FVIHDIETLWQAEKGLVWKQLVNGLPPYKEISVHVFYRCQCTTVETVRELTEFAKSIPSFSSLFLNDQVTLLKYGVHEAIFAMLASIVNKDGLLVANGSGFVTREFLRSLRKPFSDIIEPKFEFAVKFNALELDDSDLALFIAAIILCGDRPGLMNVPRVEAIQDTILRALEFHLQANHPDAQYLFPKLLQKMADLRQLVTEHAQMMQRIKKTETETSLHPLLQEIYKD

[1] = system: insulin-resistant male rat (Ico: ZUCKER-fa/fa); assay: Normalization of metabolic parameters (cholesterol, plasma triglycerides) in insulin-resistant rat; type: in vivo; settings: oral route, once per day for four days, Zucker fa/fa rat unfed 16-18 hours; for change in vivo at 10 mg/kg / change in vivo at 2.5 mg/kg: 96 h
Protocol: Normalization of metabolic parameters (cholesterol, plasma triglycerides) in an insulin-resistant male rat (Ico: ZUCKER-fa/fa), unfed for 16-18 hours, after treatment by oral route, once per day for four days, with the compounds to be evaluated or their administration vehicle.
These metabolic parameters are measured by spectrophotometry at the beginning and the end of each animal's treatment.

[2] = at 2.5 mg/kg, read-out: Plasma cholesterol

Structure (SMILES) | EC50 (human PPARα) [µM] | EC50 (human PPARγ) [µM] | EC50 (human PPARδ) [µM] | change in vivo at 10 mg/kg ([1]; read-out: Plasma cholesterol) [%] | change in vivo at 10 mg/kg ([1]; read-out: Plasma triglycerides) [%] | Plasma cholesterol ([1]; at 2.5 mg/kg) | Plasma triglycerides ([1]; at 2.5 mg/kg) | change in vivo at 2.5 mg/kg [1, 2] [%]
CCCCCCCn1nc(NCCCCc2cccc(OC(C)(C)C(=O)O)c2)c(=O)n(CCCC(F)(F)F)c1=O [Example 84, 2-(3-{4-[2-Heptyl-3,5-dioxo-4-(4,4,4-trifluoro-butyl)-2,3,4,5-tetrahydro-[1,2,4]triazin-6-ylamino]-butyl}-phenoxy)-2-methyl-propionic Acid] | 0.003 to 0.01 | ~0.3 | 1 to 3 | -13 | -7 | inactive at 2.5 | inactive at 2.5 | 
CCCCCCCn1nc(OCCCc2ccc(OC(C)(C)C(=O)OCC)cc2)c(=O)n(C)c1=O [Example 27, Ethyl 2-{4-[3-(2-heptyl-4-methyl-3,5-dioxo-2,3,4,5-tetrahydro-[1,2,4]triazin-6-yloxy)-propyl]-phenoxy}-2-methyl-propionate] | ~3 | 3 to 10 | 3 to 10 |  |  |  |  | 
CCCCCCCn1nc(NCCOc2ccc(OC(C)(C)C(=O)OCC)cc2)c(=O)n(C)c1=O [Example 40, Ethyl 2-{4-[2-(2-heptyl-4-methyl-3,5-dioxo-2,3,4,5-tetrahydro-[1,2,4]triazin-6-ylamino)-ethoxy]-phenoxy}-2-methyl-propionate] | 3 to 10 | ~10 | > 10 |  |  |  |  | 
CCCCCCCn1nc(NCCOc2ccc(OC(C)(C)C(=O)OCC)cc2)c(=O)n(CCCCCCC)c1=O [Example 42, Ethyl 2-{4-[2-(2,4-diheptyl-3,5-dioxo-2,3,4,5-tetrahydro-[1,2,4]triazin-6-ylamino)-ethoxy]-phenoxy}-2-methyl-propionate] | ~1 | > 10 | 1 to 3 |  |  |  |  | 
CCCCCCCn1c(=O)c(NCCc2ccc(SC(C)(C)C(=O)OCC)cc2)nn(C)c1=O [Example 122, Ethyl 2-{4-[2-(4-heptyl-2-methyl-3,5-dioxo-2,3,4,5-tetrahydro-[1,2,4]triazin-6-ylamino)-ethyl]-phenylsulfanyl}-2-methyl-propionate] | ~0.3 |  | > 10 | -22 | -35 |  |  | 
CCCCCCCN(CCc1ccc(OC(C)(C)C(=O)O)cc1)c1nn(C)c(=O)n(C)c1=O [Example 113, 2-(4-{2-[(2,4-Dimethyl-3,5-dioxo-2,3,4,5-tetrahydro-[1,2,4]triazin-6-yl)-heptyl-amino]-ethyl}-phenoxy)-2-methyl-propionic Acid] | 0.3 to 1 | 3 to 10 | 0.3 to 1 | -40 | -26 |  | inactive at 2.5 | -30
CCCCCCCn1nc(NCCc2ccc(OC(C)(C)C(=O)OCC)cc2)c(=O)n(Cc2ccccc2)c1=O [Example 109, Ethyl 2-{4-[2-(4 benzyl-2-heptyl-3,5-dioxo-2,3,4,5-tetrahydro-[1,2,4]triazin-6-ylamino)-ethyl]-phenoxy}-2-methyl-propionate] | ~1 |  | 3 to 10 |  |  |  |  | 
CCOC(=O)C(C)(C)Oc1ccc(CCN(CCCc2ccccc2)c2nn(C)c(=O)n(C)c2=O)cc1 [Example 115, Ethyl 2-(4-{2-[(2,4-dimethyl-3,5-dioxo-2,3,4,5-tetrahydro-[1,2,4]triazin-6-yl)-(3-phenylpropyl)-amino]-ethyl}-phenoxy)-2-methyl-propionate] | ~3 |  | > 10 |  |  |  |  | 
CCOC(=O)C(C)(C)Oc1cccc(CCCCNc2nn(CCCC(F)(F)F)c(=O)n(CC=C(C)C)c2=O)c1 [Example 76, Ethyl 2-methyl-2-(3-{4-[4-(3-methyl-but-2-enyl)-3,5-dioxo-2-(4,4,4-trifluoro-butyl)-2,3,4,5-tetrahydro-[1,2,4]triazin-6-ylamino]-butyl}-phenoxy)-propionate] | 0.01 to 0.03 | 1 to 3 | 3 to 10 | -22 | -7 |  |  | -16
CCCCCCCn1c(=O)c(NCCCCc2cccc(OC(C)(C)C(=O)OCC)c2)nn(Cc2ccccc2)c1=O [Example 89, Ethyl 2-{3-[4-(2-benzyl-4-heptyl-3,5-dioxo-2,3,4,5-tetrahydro-[1,2,4]triazin-6-ylamino)-butyl]-phenoxy}-2-methyl-propionate] | > 10 | 1 to 3 | 3 to 10 |  |  |  |  | 
CCCCn1c(=O)c(OCCCCCc2cccc(OC(C)(C)C(=O)OCC)c2)nn(CCCC(F)(F)F)c1=O [Example 14, Ethyl 2-(3-{5-[4-Butyl-3,5-dioxo-2-(4,4,4-trifluoro-butyl)-2,3,4,5-tetrahydro-[1,2,4]triazin-6-yloxy]-pentyl}-phenoxy)-2-methyl-propionate] | 0.01 to 0.03 | ~1 | ~10 |  |  |  |  | 
CCOC(=O)C(C)(C)Oc1ccc(CCNc2nn(COCc3ccccc3)c(=O)n(COCc3ccccc3)c2=O)cc1 [Example 110, Ethyl 2-{4-[2-(2,4-bis-benzyloxymethyl-3,5-dioxo-2,3,4,5-tetrahydro-[1,2,4]triazin-6-ylamino)ethyl]-phenoxy}-2-methyl-propionate] | 1 to 3 |  | > 10 |  |  |  |  | 
CCOC(=O)C(C)(C)Oc1ccc(OCCCOc2nn(CCCC(F)(F)F)c(=O)n(CCCC(F)(F)F)c2=O)cc1 [Example 39, Ethyl 2-(4-{3-[3,5-dioxo-2,4-bis-(4,4,4-trifluoro-butyl)-2,3,4,5-tetrahydro-[1,2,4]triazin-6-yloxy]-propoxy}-phenoxy)-2-methyl-propionate] | 0.1 to 0.3 | 3 to 10 | ~3 |  |  |  |  | 
CCCCn1nc(OCCCCCc2cccc(OC(C)(C)C(=O)OCC)c2)c(=O)n(CCCC)c1=O [Example 13, Ethyl 2-{3-[5-(2,4-dibutyl-3,5-dioxo-2,3,4,5-tetrahydro-[1,2,4]triazin-6-yloxy)-pentyl]-phenoxy}-2-methyl-propionate] | 0.01 to 0.03 | 0.1 to 0.3 | ~3 | -12 | -28 |  | inactive at 2.5 | -8
CCCCCCCn1c(=O)c(OCCCCc2ccc(OC(C)(C)C(=O)OCC)cc2)nn(CCCC(F)(F)F)c1=O [Example 31, Ethyl 2-(4-{4-[4-heptyl-3,5-dioxo-2-(4,4,4-trifluoro-butyl)-2,3,4,5-tetrahydro-[1,2,4]triazin-6-yloxy]-butyl}-phenoxy)-2-methyl-propionate] | ~0.1 | ~1 | 3 to 10 |  |  |  |  | 
CC(C)(Oc1ccc(C(=O)c2ccc(Cl)cc2)cc1)C(=O)O [Fenofibric acid, reference compound] | 16.9 |  | > 100 |  |  |  |  | 
CCCCCCCn1c(=O)c(NCCc2ccc(OC(C)(C)C(=O)OCC)cc2)nn(C)c1=O [Example 106, Ethyl 2-{4-[2-(4-heptyl-2-methyl-3,5-dioxo-2,3,4,5-tetrahydro-[1,2,4]triazin-6-ylamino)-ethyl]-phenoxy}-2-methyl-propionate] | ~1 |  | > 10 |  |  |  |  | 
CCCCCCCn1nc(OCCCCc2ccc(OC(C)(C)C(=O)OCC)cc2)c(=O)n(C)c1=O [Example 29, Ethyl 2-{4-[4-(2-heptyl-4-methyl-3,5-dioxo-2,3,4,5-tetrahydro-[1,2,4]triazin-6-yloxy)-butyl]-phenoxy}-2-methyl-propionate] | 3 to 10 | 3 to 10 | 3 to 10 |  |  |  |  | 
CCOC(=O)C(C)(C)Oc1cccc(OCCCOc2nn(CCCC(F)(F)F)c(=O)n(CCCC(F)(F)F)c2=O)c1 [Example 35, Ethyl 2-(3-{3-[3,5-dioxo-2,4-bis-(4,4,4-trifluoro-butyl)-2,3,4,5-tetrahydro-[1,2,4]triazin-6-yloxy]-propoxy}-phenoxy)-2-methyl-propionate] | 0.03 to 0.1 | 3 to 10 | ~10 |  |  |  |  | 
CCCCCCCn1c(=O)c(NCCCOc2ccc(OC(C)(C)C(=O)OCC)cc2)nn(CCCC(F)(F)F)c1=O [Example 48, Ethyl 2-(4-{3-[4-heptyl-3,5-dioxo-2-(4,4,4-trifluoro-butyl)-2,3,4,5-tetrahydro-[1,2,4]triazin-6-ylamino]-propoxy}-phenoxy)-2-methyl-propionate] | 0.3 to 1 | 0.3 to 1 | ~3 |  |  |  |  | 
